According to patent US20100298141A1, “SUBSTITUTED PYRIDINE N-OXIDE HERBICIDES” (E. I. DU PONT DE NEMOURS AND COMPANY, priority 2007, published 2010):

Assays:
Conditions in all cases: scale 0 to 100
blackgrass = assay: Test D preemergence test; assay type: in vivo, Alopecurus myosuroides
Source text: (§1) Seeds of plant species selected from annual bluegrass (Poa annua), blackgrass (Alopecurus myosuroides), downy bromegrass (Bromus tectorum), field violet (Viola arvensis), green foxtail (Setaria viridis), Italian ryegrass (Lolium multiflorum), littleseed canarygrass (Phalaris minor), spring wheat (Triticum aestivum), wild oat (Avena fatua), […]), winter barley (Hordeum vulgare), and winter wheat (Triticum aestivum) were planted and treated preemergence with test chemicals formulated in a non-phytotoxic solvent mixture which included a surfactant. […] A dash (-) response means no test result.

cotton = assay: Test G preemergence test; assay type: in vivo, Gossypium hirsutum
field sandbur = assay: Test G preemergence test; assay type: in vivo, Cenchrus incertus
eastern black nightshade = assay: Test G preemergence test; assay type: in vivo, Solanum ptycanthum
lambsquarters = assay: Test G preemergence test; assay type: in vivo, Chenopodium album
fall panicum = assay: Test G preemergence test; assay type: in vivo, Panicum dichotomiflorum
tall waterhemp = assay: Test G preemergence test; assay type: in vivo, Amaranthus tuberculatos
woolly cupgrass = assay: Test G preemergence test; assay type: in vivo, Eriochloa villosa
field violet = assay: Test D preemergence test; assay type: in vivo, Viola arvensis
Source text: as §1

windgrass = assay: Test D preemergence test; assay type: in vivo, Apera spica-venti
Source text: as §1

sorghum = assay: Test G preemergence test; assay type: in vivo, Sorghum vulgare
annual bluegrass = assay: Test D preemergence test; assay type: in vivo, Poa annua
Source text: as §1

corn = assay: Test G preemergence test; assay type: in vivo, Zea mays
soybean = assay: Test G preemergence test; assay type: in vivo, Glycine max
goosegrass = assay: Test G preemergence test; assay type: in vivo, Eleusine indica
spring wheat = assay: Test D preemergence test; assay type: in vivo, Triticum aestivum
Source text: as §1

yellow foxtail = assay: Test G preemergence test; assay type: in vivo, Pennisetum glaucum
broadleaf signalgrass = assay: Test G preemergence test; assay type: in vivo, Brachiaria platyphylla
littleseed canarygrass = assay: Test D preemergence test; assay type: in vivo, Phalaris minor
Source text: as §1

millet foxtail = assay: Test G preemergence test; assay type: in vivo, Setaria italica
Italian ryegrass = assay: Test D preemergence test; assay type: in vivo, Lolium multiflorum
Source text: as §1

giant foxtail = assay: Test G preemergence test; assay type: in vivo, Setaria faberii

Cc1cc[n+]([O-])c(S(=O)(=O)C(Cl)c2c(C(F)(F)F)nn(C)c2Cl)c1 (racemic) [Compound 22]
55: Plant response rating, Ryegrass, Italian (Italian ryegrass; 250 g ai/ha)
80: Plant response rating, Lambsquarters (lambsquarters; 250 g ai/ha) | Plant response rating, Cupgrass, Woolly (woolly cupgrass; 250 g ai/ha)
35: Plant response rating, Foxtail, Yellow (yellow foxtail; 62 g ai/ha) | Plant response rating, Ryegrass, Italian (Italian ryegrass; 125 g ai/ha)
40: Plant response rating, Blackgrass (blackgrass; 31 g ai/ha) | Plant response rating, Blackgrass (blackgrass; 62 g ai/ha) | Plant response rating, Signalgrass (broadleaf signalgrass; 62 g ai/ha)
70: Plant response rating, Cupgrass, Woolly (woolly cupgrass; 125 g ai/ha) | Plant response rating, Foxtail, Giant (giant foxtail; 62 g ai/ha)
45: Plant response rating, Nightshade (eastern black nightshade; 250 g ai/ha) | Plant response rating, Field Violet (field violet; 250 g ai/ha)
90: Plant response rating, Fall Panicum (fall panicum; 125 g ai/ha)
100: Plant response rating, Sandbur (field sandbur; 250 g ai/ha) | Plant response rating, Fall Panicum (fall panicum; 250 g ai/ha) | Plant response rating, Waterhemp (tall waterhemp; 250 g ai/ha) | Plant response rating, Windgrass (windgrass; 31 g ai/ha) | Plant response rating, Windgrass (windgrass; 62 g ai/ha) | Plant response rating, Windgrass (windgrass; 125 g ai/ha) | Plant response rating, Windgrass (windgrass; 250 g ai/ha) | Plant response rating, Bluegrass (annual bluegrass; 250 g ai/ha) | Plant response rating, Goosegrass (goosegrass; 31 g ai/ha) | Plant response rating, Goosegrass (goosegrass; 62 g ai/ha) | Plant response rating, Goosegrass (goosegrass; 125 g ai/ha) | Plant response rating, Goosegrass (goosegrass; 250 g ai/ha) | Plant response rating, Foxtail, Yellow (yellow foxtail; 125 g ai/ha) | Plant response rating, Foxtail, Yellow (yellow foxtail; 250 g ai/ha) | Plant response rating, Canarygrass (littleseed canarygrass; 250 g ai/ha)
85: Plant response rating, Sandbur (field sandbur; 125 g ai/ha) | Plant response rating, Fall Panicum (fall panicum; 31 g ai/ha) | Plant response rating, Fall Panicum (fall panicum; 62 g ai/ha)
95: Plant response rating, Blackgrass (blackgrass; 250 g ai/ha) | Plant response rating, Sorghum (sorghum; 250 g ai/ha) | Plant response rating, Bluegrass (annual bluegrass; 125 g ai/ha) | Plant response rating, Foxtail, Millet (millet foxtail; 31 g ai/ha) | Plant response rating, Foxtail, Millet (millet foxtail; 62 g ai/ha) | Plant response rating, Foxtail, Millet (millet foxtail; 125 g ai/ha) | Plant response rating, Foxtail, Millet (millet foxtail; 250 g ai/ha)
30: Plant response rating, Waterhemp (tall waterhemp; 125 g ai/ha) | Plant response rating, Field Violet (field violet; 62 g ai/ha) | Plant response rating, Field Violet (field violet; 125 g ai/ha) | Plant response rating, Ryegrass, Italian (Italian ryegrass; 62 g ai/ha)
65: Plant response rating, Bluegrass (annual bluegrass; 62 g ai/ha) | Plant response rating, Signalgrass (broadleaf signalgrass; 125 g ai/ha) | Plant response rating, Foxtail, Giant (giant foxtail; 31 g ai/ha)
60: Plant response rating, Sandbur (field sandbur; 62 g ai/ha) | Plant response rating, Cupgrass, Woolly (woolly cupgrass; 62 g ai/ha)
15: Plant response rating, Sandbur (field sandbur; 31 g ai/ha) | Plant response rating, Wheat, Spring (spring wheat; 250 g ai/ha) | Plant response rating, Canarygrass (littleseed canarygrass; 62 g ai/ha)
0: Plant response rating, Cotton (cotton; 31 g ai/ha) | Plant response rating, Cotton (cotton; 62 g ai/ha) | Plant response rating, Cotton (cotton; 125 g ai/ha) | Plant response rating, Cotton (cotton; 250 g ai/ha) | Plant response rating, Nightshade (eastern black nightshade; 31 g ai/ha) | Plant response rating, Nightshade (eastern black nightshade; 62 g ai/ha) | Plant response rating, Nightshade (eastern black nightshade; 125 g ai/ha) | Plant response rating, Lambsquarters (lambsquarters; 31 g ai/ha) | Plant response rating, Lambsquarters (lambsquarters; 62 g ai/ha) | Plant response rating, Lambsquarters (lambsquarters; 125 g ai/ha) | Plant response rating, Waterhemp (tall waterhemp; 31 g ai/ha) | Plant response rating, Cupgrass, Woolly (woolly cupgrass; 31 g ai/ha) | Plant response rating, Field Violet (field violet; 31 g ai/ha) | Plant response rating, Sorghum (sorghum; 31 g ai/ha) | Plant response rating, Sorghum (sorghum; 62 g ai/ha) | Plant response rating, Sorghum (sorghum; 125 g ai/ha) | Plant response rating, Corn (corn; 31 g ai/ha) | Plant response rating, Corn (corn; 62 g ai/ha) | Plant response rating, Corn (corn; 125 g ai/ha) | Plant response rating, Corn (corn; 250 g ai/ha) | Plant response rating, Soybean (soybean; 31 g ai/ha) | Plant response rating, Soybean (soybean; 62 g ai/ha) | Plant response rating, Soybean (soybean; 125 g ai/ha) | Plant response rating, Soybean (soybean; 250 g ai/ha) | Plant response rating, Wheat, Spring (spring wheat; 31 g ai/ha) | Plant response rating, Wheat, Spring (spring wheat; 62 g ai/ha) | Plant response rating, Wheat, Spring (spring wheat; 125 g ai/ha) | Plant response rating, Foxtail, Yellow (yellow foxtail; 31 g ai/ha) | Plant response rating, Signalgrass (broadleaf signalgrass; 31 g ai/ha) | Plant response rating, Canarygrass (littleseed canarygrass; 31 g ai/ha) | Plant response rating, Ryegrass, Italian (Italian ryegrass; 31 g ai/ha)
75: Plant response rating, Signalgrass (broadleaf signalgrass; 250 g ai/ha) | Plant response rating, Canarygrass (littleseed canarygrass; 125 g ai/ha) | Plant response rating, Foxtail, Giant (giant foxtail; 125 g ai/ha) | Plant response rating, Foxtail, Giant (giant foxtail; 250 g ai/ha)
20: Plant response rating, Waterhemp (tall waterhemp; 62 g ai/ha) | Plant response rating, Bluegrass (annual bluegrass; 31 g ai/ha)
